Measurements as given in ChEMBL document CHEMBL1201862, “PubChem BioAssay data set” (2004).
Values joined by “and” are separate entries in the source; they are usually repeats but may differ in a detail not shown here. Identical values can stand only once.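 Test compounds were applied to cells in 96-well plates for 48 hours at 5 doses. GI50 is the concentration that inhibits growth by half.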 Active and inactive are the calls of the source. No stated cut-off is given here; in the data, active = GI50 up to about 1.1 µM and inactive = higher.

Legend:
Assay in all cases: NCI anticancer screen, dose series, 48 h
786-0 = test system: 786-0
A498 = test system: A498
ACHN = test system: ACHN
CAKI-1 = test system: CAKI-1
COLO 205 = test system: COLO 205
DMS-114 = test system: DMS-114
DMS-273 = test system: DMS-273
EKVX = test system: EKVX
HCT-116 = test system: HCT-116
HCT-15 = test system: HCT-15
HOP-62 = test system: HOP-62
HT-29 = test system: HT-29
KM-20L2 = test system: KM-20L2
KM12 = test system: KM12
LOX IMVI = test system: LOX IMVI
M14 = test system: M14
Malme-3M = test system: Malme-3M
NCI-H226 = test system: NCI-H226
NCI-H23 = test system: NCI-H23
NCI-H460 = test system: NCI-H460
NCI-H522 = test system: NCI-H522
OVCAR-3 = test system: OVCAR-3
OVCAR-5 = test system: OVCAR-5
OVCAR-8 = test system: OVCAR-8
RPMI-8226 = test system: RPMI-8226
RXF 393 = test system: RXF 393
SF-268 = test system: SF-268
SF-295 = test system: SF-295
SF-539 = test system: SF-539
SK-MEL-28 = test system: SK-MEL-28
SK-MEL-2 = test system: SK-MEL-2
SK-MEL-5 = test system: SK-MEL-5
SN12C = test system: SN12C
SW-620 = test system: SW-620
U-251 = test system: U-251
UACC-62 = test system: UACC-62
XF498 = test system: XF498

CC1(O)CC2C(CC1SCc1ccccc1)C2(C)C (configuration not stated)
GI50 (786-0): 15.8 µM (inactive) and 21.7 µM (inactive)
GI50 (A498): 18.3 µM (inactive) and 28.1 µM (inactive)
GI50 (ACHN): 16.8 µM (inactive) and 18.2 µM (inactive)
GI50 (CAKI-1): 15.8 µM (inactive) and 12.5 µM (inactive)
GI50 (COLO 205): 20 µM (inactive) and 16.9 µM (inactive)
GI50 (DMS-114): 14.5 µM (inactive)
GI50 (DMS-273): 14.2 µM (inactive) and 17.9 µM (inactive)
GI50 (EKVX): 16.7 µM (inactive) and 29.7 µM (inactive)
GI50 (HCT-116): 16.6 µM (inactive) and 21.2 µM (inactive)
GI50 (HCT-15): 16.9 µM and 22.3 µM
GI50 (HOP-62): 24.9 µM (inactive) and 16.6 µM (inactive)
GI50 (HT-29): 16.4 µM (inactive) and 23.1 µM (inactive)
GI50 (KM-20L2): 20.6 µM (inactive) and 26.6 µM (inactive)
GI50 (KM12): 19.3 µM (inactive) and 25.3 µM (inactive)
GI50 (LOX IMVI): 17.1 µM (inactive) and 15.5 µM (inactive)
GI50 (M14): 30.1 µM (inactive) and 15.5 µM (inactive)
GI50 (Malme-3M): 22 µM (inactive) and 16.3 µM (inactive)
GI50 (NCI-H226): 21.5 µM (inactive) and 16 µM (inactive)
GI50 (NCI-H23): 23.3 µM (inactive) and 14.2 µM (inactive)
GI50 (NCI-H460): 14.6 µM (inactive) and 22.9 µM (inactive)
GI50 (NCI-H522): 13.7 µM (inactive) and 11.9 µM (inactive)
GI50 (OVCAR-3): 12.3 µM (inactive) and 16.9 µM (inactive)
GI50 (OVCAR-5): 17.9 µM (inactive) and 17.1 µM (inactive)
GI50 (OVCAR-8): 16.5 µM (inactive) and 29.4 µM (inactive)
GI50 (RPMI-8226): 11.9 µM (inactive) and 19.8 µM (inactive)
GI50 (RXF 393): 15.3 µM (inactive) and 18.5 µM (inactive)
GI50 (SF-268): 25.9 µM (inactive) and 18.7 µM (inactive)
GI50 (SF-295): 28.2 µM (inactive)
GI50 (SF-539): 28.8 µM (inactive) and 19.3 µM (inactive)
GI50 (SK-MEL-28): 21 µM (inactive) and 29.3 µM (inactive)
GI50 (SK-MEL-2): 17.3 µM (inactive) and 11.4 µM (inactive)
GI50 (SK-MEL-5): 23.6 µM (inactive) and 13.1 µM (inactive)
GI50 (SN12C): 16.1 µM (inactive) and 23.2 µM (inactive)
GI50 (SW-620): 17.5 µM (inactive) and 21.7 µM (inactive)
GI50 (U-251): 16 µM (inactive) and 21.2 µM (inactive)
GI50 (UACC-62): 32.4 µM (inactive) and 19.3 µM (inactive)
GI50 (XF498): 20.5 µM (inactive) and 15.2 µM (inactive)
